# Laboratory results taken from patent publication US12157746B2, “Tetrahydro-1H-pyrazino[2,1-a]isoindolylquinoline compounds for the treatment of autoimmune disease” (F. HOFFMANN-LA ROCHE AG, priority 2018, dated 2024).
# Target: T1, human TLR7 (Homo sapiens, UniProt Q9NYK1)
# T1 sequence (Q9NYK1 27-1049): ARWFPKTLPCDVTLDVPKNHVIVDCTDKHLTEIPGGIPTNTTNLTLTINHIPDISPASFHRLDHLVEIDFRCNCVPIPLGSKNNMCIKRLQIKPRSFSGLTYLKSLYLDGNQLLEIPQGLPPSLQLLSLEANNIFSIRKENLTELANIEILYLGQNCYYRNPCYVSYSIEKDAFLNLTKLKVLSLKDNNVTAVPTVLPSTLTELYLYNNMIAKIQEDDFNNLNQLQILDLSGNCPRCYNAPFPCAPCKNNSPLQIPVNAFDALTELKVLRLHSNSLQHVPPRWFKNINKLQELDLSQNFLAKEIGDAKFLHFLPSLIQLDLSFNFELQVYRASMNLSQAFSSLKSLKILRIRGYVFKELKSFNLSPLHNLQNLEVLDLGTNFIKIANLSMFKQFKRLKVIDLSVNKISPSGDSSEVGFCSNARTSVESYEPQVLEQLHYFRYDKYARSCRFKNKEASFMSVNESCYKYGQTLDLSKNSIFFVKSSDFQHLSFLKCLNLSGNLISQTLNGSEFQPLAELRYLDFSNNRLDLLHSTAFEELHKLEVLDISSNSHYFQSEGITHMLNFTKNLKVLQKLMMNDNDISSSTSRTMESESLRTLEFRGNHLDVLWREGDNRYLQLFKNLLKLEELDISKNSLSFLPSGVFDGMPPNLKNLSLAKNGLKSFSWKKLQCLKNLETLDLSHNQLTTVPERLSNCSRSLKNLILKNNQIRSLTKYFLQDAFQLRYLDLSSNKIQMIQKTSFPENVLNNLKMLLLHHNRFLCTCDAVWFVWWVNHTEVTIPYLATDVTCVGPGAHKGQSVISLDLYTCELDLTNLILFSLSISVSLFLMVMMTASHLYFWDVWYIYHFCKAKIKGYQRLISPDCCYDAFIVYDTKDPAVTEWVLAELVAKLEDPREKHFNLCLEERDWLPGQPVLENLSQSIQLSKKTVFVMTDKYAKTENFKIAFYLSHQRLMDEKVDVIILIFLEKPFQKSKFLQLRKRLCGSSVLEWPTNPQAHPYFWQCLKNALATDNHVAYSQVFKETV
# Experiment: HEK293-Blue-hTLR-7 cells assay
# Assay type: cell-based
# Conditions: HEK293-Blue-hTLR7 cells, R848 stimulation, 20 hrs, SEAP reporter; read-out: HEK/hTLR7 IC50
# Source text: HEK293-Blue-hTLR-7 Cells Assay:
# A stable HEK293-Blue-hTLR-7 cell line was purchased from InvivoGen (Cat. #: hkb-htlr7, San Diego, California, USA). These cells were originally designed for studying the stimulation of human TLR7 by monitoring the activation of NF-κB. A SEAP (secreted embryonic alkaline phosphatase) reporter gene was placed under the control of the IFN-β minimal promoter fused to five NF-κB and AP-1-binding sites. The SEAP was induced by activating NF-κB and AP-1 via stimulating HEK-Blue hTLR7 cells with TLR7 ligands. Therefore the reporter expression was declined by TLR7 antagonist under the stimulation of a ligand, such as R848 (Resiquimod), for incubation of 20 hrs. The cell culture supernatant SEAP reporter activity was determined using QUANTI-Blue™ kit (Cat. #: rep-qb1, Invivogen, San Diego, Ca. USA) at a wavelength of 640 nm, a detection medium that turns purple or blue in the presence of alkaline phosphatase.
# HEK293-Blue-hTLR7 cells were incubated at a density of 250,000˜450,000 cells/mL in a volume of 170 μL in a 96-well plate in Dulbecco's Modified Eagle's medium (DMEM) containing 4.5 g/L glucose, 50 U/mL penicillin, […], […], 2 mM L-glutamine, 10% (v/v) heat-inactivated fetal bovine serum with addition of 20 μL test compound 1n a serial dilution in the presence of final DMSO at 1% and 10 μL of 20 uM R848 in above DMEM, perform incubation under 37° C. in a CO2 incubator for 20 hrs. Then 20 μL of the supernatant from each well was incubated with 180 μL Quanti-blue substrate solution at 37° C. for 2 hrs and the absorbance was read at 620-655 nm using a spectrophotometer. The signaling pathway that TLR7 activation leads to downstream NF-κB activation has been widely accepted, and therefore similar reporter assay was modified for evaluating TLR7 antagonist.
row,Structure (SMILES),IC50 [nM]
1,"C[C@@H]1CN(c2ccc(C#N)n3nccc23)C[C@@H]2c3ccc(N4CC5CNCC(C4)O5)cc3CN12 [Example 107, 4-[(4R,10bS)-4-methyl-8-(9-oxa-3,7-diazabicyclo[3.3.1]nonan-3-yl)-3,4,6,10b-tetrahydro-1H-pyrazino[2,1-a]isoindol-2-yl]pyrazolo[1,5-a]pyridine-7-carbonitrile]",14.5
2,"C[C@@H]1CN(c2ccc(C#N)n3nccc23)C[C@@H]2c3ccc(N[C@H]4CNC[C@H]4F)cc3CN12 [Example 98, 4-[(4R,10bS)-8-[[(3S,4R)-4-fluoropyrrolidin-3-yl]amino]-4-methyl-3,4,6,10b-tetrahydro-1H-pyrazino[2,1-a]isoindol-2-yl]pyrazolo[1,5-a]pyridine-7-carbonitrile]",23.2
3,"C[C@@H]1CN(c2ccc(C#N)c3ncccc23)C[C@@H]2c3ccc(N4CCOC5(CNC5)C4)cc3CN12 [Example 24, 5-[(4R,10bS)-4-methyl-8-(5-oxa-2,8-diazaspiro[3.5]nonan-8-yl)-3,4,6,10b-tetrahydro-1H-pyrazino[2,1-a]isoindol-2-yl]quinoline-8-carbonitrile]",3.4
4,"C[C@@H]1CN(c2ccc(C#N)c3ncccc23)C[C@@H]2c3ccc(N4CCNCC(C)(O)C4)cc3CN12 (stereo partly drawn) [Example 55, 5-[(4R,10S)-8-(6-hydroxy-6-methyl-1,4-diazepan-1-yl)-4-methyl-3,4,6,10b-tetrahydro-1H-pyrazino[2,1-a]isoindol-2-yl]quinoline-8-carbonitrile]",6.5
5,"[2H]c1ccc2c(N3C[C@@H](C)N4Cc5cc(N[C@H]6CNC[C@H]6F)ccc5[C@H]4C3)ccc(C#N)c2n1 [Example 91, 5-[(4R,10bS)-8-[[(3S,4R)-4-fluoropyrrolidin-3-yl]amino]-4-methyl-3,4,6,10b-tetrahydro-1H-pyrazino[2,1-a]isoindol-2-yl]-2-deuterio-quinoline-8-carbonitrile]",1.7

# More lines, now with the values ahead:
row,IC50 [nM],Structure (SMILES)
1,7,"CN[C@H]1CN(c2ccc3c(c2)CN2[C@H](C)CN(c4ccc(C#N)c5ncccc45)C[C@H]32)C[C@@H]1OC [Example 23, 5-[(4R,10bS)-8-[(3S,4S)-3-methoxy-4-(methylamino)pyrrolidin-1-yl]-4-methyl-3,4,6,10b-tetrahydro-1H-pyrazino[2,1-a]isoindol-2-yl]quinoline-8-carbonitrile]"
2,6.9,"CO[C@H]1CN(c2ccc3c(c2)CN2[C@H](C)CN(c4ccc(C#N)c5ncccc45)C[C@H]32)C[C@@H]1N (relative stereo) [Example 16, 5-[(4R,10bS)-8-[trans-3-amino-4-methoxy-pyrrolidin-1-yl]-4-methyl-3,4,6,10b-tetrahydro-1H-pyrazino[2,1-a]isoindol-2-yl]quinoline-8-carbonitrile]"
3,5,"C[C@@H]1CN(c2ccc3c(c2)CN2[C@H](C)CN(c4ccc(C#N)n5nccc45)C[C@H]32)CCN1 [Example 97, 4-[(4R,10bS)-4-methyl-8-[(3R)-3-methylpiperazin-1-yl]-3,4,6,10b-tetrahydro-1H-pyrazino[2,1-a]isoindol-2-yl]pyrazolo[1,5-a]pyridine-7-carbonitrile]"
4,13.7,"CO[C@@H]1CN(c2ccc3c(c2)CN2[C@H](C)CN(c4ccc(C#N)n5nccc45)C[C@H]32)C[C@H]1N [Example 94, 4-[(4R,10bS)-8-[(3R,4R)-3-amino-4-methoxy-pyrrolidin-1-yl]-4-methyl-3,4,6,10b-tetrahydro-1H-pyrazino[2,1-a]isoindol-2-yl]pyrazolo[1,5-a]pyridine-7-carbonitrile]"
5,7.7,"C[C@@H]1CN(c2ccc(C#N)c3ncccc23)C[C@@H]2c3ccc(N4CCNC[C@](C)(O)C4)cc3CN12 [Example 55A, 5-[(4R,10bS)-8-[(6S)-6-hydroxy-6-methyl-1,4-diazepan-1-yl]-4-methyl-3,4,6,10b-tetrahydro-1H-pyrazino[2,1-a]isoindol-2-yl]quinoline-8-carbonitrile]"
6,< 3.2,"C[C@@H]1CN(c2ccc(C#N)c3ncccc23)C[C@@H]2c3cccc(N4CCNCC4)c3CN12 [Example 8, 5-[(4R,10bS)-4-methyl-7-piperazin-1-yl-3,4,6,10b-tetrahydro-1H-pyrazino[2,1-a]isoindol-2-yl]quinoline-8-carbonitrile]"
